Measured values reported in patent publication US20230073183A1, “IMPROVED URICASE AND METHOD FOR TREATING HYPERURICEMIA USING SAME” (SHANGHAI JUNSHI BIOSCIENCES CO., LTD., priority 2019, published 2023).
Changes are numbered by the printed parent chain. Numbers in names are those of the source.

T1: Micrococcus uricase variant AG-2C01-2-PEG (A35C/T194C in AG-00-1, SEQ ID NO: 3; PEGylated) (Arthrobacter globiformis, UniProt D0VWQ1, A35C/T194C)
T1 construct: purified
T1 sequence (D0VWQ1 1-297 A35C/T194C): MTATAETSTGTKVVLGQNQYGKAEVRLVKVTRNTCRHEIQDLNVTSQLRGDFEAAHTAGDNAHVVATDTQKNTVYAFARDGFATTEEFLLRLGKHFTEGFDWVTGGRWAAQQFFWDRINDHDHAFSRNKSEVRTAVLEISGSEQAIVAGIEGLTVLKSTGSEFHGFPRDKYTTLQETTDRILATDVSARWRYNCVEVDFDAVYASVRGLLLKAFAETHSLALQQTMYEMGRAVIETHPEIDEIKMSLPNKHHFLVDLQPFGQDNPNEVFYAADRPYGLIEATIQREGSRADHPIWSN

T2: Micrococcus uricase variant AG-2C12-PEG (S142C/E216C in AG-00-1, SEQ ID NO: 3; PEGylated) (Arthrobacter globiformis, UniProt D0VWQ1, E216C/S142C)
T2 construct: purified
T2 sequence (D0VWQ1 1-297 S142C/E216C): T1 sequence (D0VWQ1 1-297 A35C/T194C) with C35A, S142C, C194T, E216C

T3: Micrococcus uricase variant AG-2C13-PEG (A35C/S288C in AG-00-1, SEQ ID NO: 3; PEGylated) (Arthrobacter globiformis, UniProt D0VWQ1, A35C/S288C)
T3 construct: purified
T3 sequence (D0VWQ1 1-297 A35C/S288C): T1 sequence (D0VWQ1 1-297 A35C/T194C) with C194T, S288C

T4: reference uricase MEDI4945 (SEQ ID NO: 2) (Arthrobacter globiformis, UniProt D0VWQ1, N33C/R49S/T11C)
T4 sequence (D0VWQ1 with tags, fused parts or gaps T11C/N33C/R49S): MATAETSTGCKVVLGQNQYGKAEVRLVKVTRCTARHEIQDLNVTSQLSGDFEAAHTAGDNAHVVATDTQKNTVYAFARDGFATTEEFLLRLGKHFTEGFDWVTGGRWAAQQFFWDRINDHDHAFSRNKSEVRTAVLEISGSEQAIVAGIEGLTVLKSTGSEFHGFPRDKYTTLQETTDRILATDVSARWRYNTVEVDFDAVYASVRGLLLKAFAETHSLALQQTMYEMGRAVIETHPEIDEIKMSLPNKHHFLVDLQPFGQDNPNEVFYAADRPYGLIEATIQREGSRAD

B1: reference uricase MEDI4945 (SEQ ID NO: 2) (Arthrobacter globiformis; N33C/R49S/T11C) (protein)
chain: T4 sequence (D0VWQ1 with tags, fused parts or gaps T11C/N33C/R49S)

Columns and labels:
Format in all cases: biochemical
[1] = target: T1, Micrococcus uricase variant AG-2C01-2-PEG (A35C/T194C in AG-00-1, SEQ ID NO: 3; PEGylated); assay: Enzyme activity kinetic study of PEGylated uricase with uric acid; settings: Tris-HCl pH 8.5, 37° C.; turnover number, substrate converted within one second
Procedure: (§1) By using a method similar to that in Example 1 to introduce Cys mutations, the following molecules were prepared: AG-2C12, AG-2C13, AG-2C16, AG-2C17, AG-1C13-1, AG-2C01, AG-2C05-1, AG-2C01-1 and AG-2C12-1.
(§2) To 2 mg of a uricase (100 mM PBS buffer, pH=7.0, 150 mM NaCl) were sequentially added TCEP.HCl (0.5 mg, tris(2-carboxyethyl)phosphine hydrochloride) and M-MAL-PEG-10K (27.5 mg, maleimide polyethylene glycol, molecular weight of 10,000 Da). The mixture was allowed to react at room temperature for 2 h. The reaction mixture was purified by ion-exchange chromatography to obtain a PEGylated uricase.
(§3) The Cys mutation sites selected above were paired for PEGylation modification and uricase activity evaluation.
(§4) A. Enzyme Activity Kinetic Study of PEGylated […]
(§5) Tris-HCl buffer system (pH 8.5) was used. The stock solution for uricase working solutions was 2 mM uric acid, which was stored at 4° C. Process of enzyme activity assay:
(§6) The temperature was set at 37° C.
(§7) Substrate (uric acid) concentration gradients: 600 μmol, 500 μmol, 400 μmol, 200 μmol, 100 μmol, 50 μmol, 25 μmol, and 12.5 μmol.
(§8) 50 μL of the above uric acid solution and 30 μL of the above Tris-HCl buffer were first added to a 96-well plate and incubated at 37° C. for 20 min. Then 20 μL of an appropriately diluted uricase solution (0.004 mg/mL) was rapidly added to the 96-well plate. Procedure setting: reaction for 10 min, one data reading every 20 s, and initiation of reaction.

[2] = target: T2, Micrococcus uricase variant AG-2C12-PEG (S142C/E216C in AG-00-1, SEQ ID NO: 3; PEGylated); assay: as above; settings: Tris-HCl pH 8.5, 37° C.; turnover number, substrate converted within one second
Procedure: as §1, §2, §3, §4, §5, §6, §7, §8

[3] = target: T3, Micrococcus uricase variant AG-2C13-PEG (A35C/S288C in AG-00-1, SEQ ID NO: 3; PEGylated); assay: as above; settings: Tris-HCl pH 8.5, 37° C.; turnover number, substrate converted within one second
Procedure: as §1, §2, §3, §4, §5, §6, §7, §8

[4] = target: T4, reference uricase MEDI4945 (SEQ ID NO: 2); assay: Enzyme activity kinetic study of reference uricase with uric acid; settings: Tris-HCl pH 8.5, 37° C.; turnover number, substrate converted within one second
Procedure: (§9) A reference uricase MEDI4945 was synthesized using a method similar to that described above, having an amino acid sequence of SEQ ID NO: 2. MEDI4945 is the uricase disclosed in International Application No. PCT/US2016/032415, having an amino acid sequence shown below:
as §4, §5, §6, §7, §8

[5] = substrate: O=c1[nH]c(=O)c2[nH]c(=O)[nH]c2[nH]1; assay: as above; settings: other: Tris-HCl pH 8.5, 37° C., uric acid 12.5-600 μmol
Procedure: as §9, §4, §5, §6, §7, §8

Row | Molecule | Kcat [1] | Kcat [2] | Kcat [3] | Kcat [4] | Km [5]
1 | O=c1[nH]c(=O)c2[nH]c(=O)[nH]c2[nH]1 [uric acid] | 5.4 | 5.3 | 3.6 | 2.6 | 
2 | B1 |  |  |  |  | 101 µM
